Data set [1] in a line: kinetic solubility determination in PBS pH 7.4. The following applies: pH 7.4, aqueous buffer, kinetic from dmso stock.
Another data set has as its system P. aeruginosa PAO1. The experiment in a line: inhibition of bacterial growth, OD600 after 20 h. The format is cell-based, Pseudomonas aeruginosa. The following applies: SSA 5.0 mM, 2.5% ethanol, negative = enhanced growth. The method, then: (§1) With the self-associative properties of 1–10 established, the antimicrobial activity of these SSAs were determined against a panel of clinically relevant, high-priority pathogens including: P. aeruginosa PAO1; Klebsiella pneumonia (K. pneumoniae) M6; E. coli NCTC 12923; Acinetobacter baumannii (A. baumannii) ATCC 17978; S. aureus ATCC 9144; Enterococcus faecalis (E. faecalis) NCTC 775; and Enterococcus faecium (E. faecium) NCTC 12204. […] However, it should be noted that the SSA stock solution was prepared in a H2O 5% EtOH solution, to ensure that the SSA aggregates formed were in line with those characterised within the scope of the SSA self-association studies.
(§2) Section 3: Biological methods
(§3) These methods were taken directly from UK Health and Security Office (UKHSA) standard […]
(§4) Preparation of Luria Broth media (LB): Yeast extract (5.0 g), tryptone (10.0 g) and sodium chloride (10.0 g) were dissolved in dH₂O (1.0 L) then divided into bottles and autoclaved.
(§5) Preparation of Luria Broth (LB) agar plates: Agar (6.0 g) was added to LB (400 mL) and autoclaved. Once cool, the LB agar was poured into sterile petri dishes under sterile conditions and allowed to set. LB plates were stored at 4 °C until use.
(§6) Preparation of bacterial plates: Sterile LB agar plates were streaked using streaked using the desired bacteria i) Pseudomonas aeruginosa (P.aeruginosa) PAO1, ii) Klebsiella pneumoniae (K. pneumoniae) M6 iii) E. coli NCTC 12923 and iv) Acinetobacter baumannii (A. baumannii) ATCC 17978 and Gram-positive i) Staphylococcus aureus (S. aureus) ATCC 9144 ii) Enterococcus faecalis (E. faecalis) NCTC 775 and iii) Enterococcus faecium (E. faecium ) NCTC 12204, then incubated at 37 °C overnight.
(§7) Preparation of Inoculum: An initial culture was made up by inoculating LB media (5 mL) with a single colony of bacteria under sterile conditions and incubated at 37 °C with shaking overnight. The following day, overnight bacterial cultures were subcultured into fresh LB medium to a starting OD600 of 0.01.
(§8) Preparation of 96 well microplate for MIC50: The 1:100 cell suspension (150 µL) was dispensed into individual wells under sterile conditions. SSAs (30 µL) were added to the wells to equal a total volume of 180 µL in the wells. Six repeats of each concentration for each SSA were created each plate. The plates were sealed using parafilm, then incubated at 37 °C in a microplate reader for 20 hours. OD600 endpoint data was used to generate growth curves. […]

Data set [2] in a line: dynamic light scattering (DLS) of SSA aggregates. The format is physicochemical. The following applies: 5.6 mM, H2O 5.0% EtOH, 298 K. The method, then: Dynamic light scattering (DLS) and zeta potential measurements in H2O 5.0% EtOH were used to determine the hydrodynamic diameter (dH) and stability of the higher-order SSA aggregates detected by (Q) ^1H NMR spectroscopy at 5.6 mM, Table 1. […] However, we are unable to confidently report a dH for 1 due to the instability of this system, which is supported by a zeta potential value of −26 mV, obtained for this SSA under the same experimental conditions. […] Due to the instability of these systems in the absence of solvent, attempts to further characterise these systems through SEM or AFM are not possible.[48]

Another data set deals with K. pneumoniae M6. The experiment in a line: inhibition of bacterial growth, OD600 after 20 h. The following applies: SSA 5.0 mM, 2.5% ethanol, negative = enhanced growth. The format is cell-based, Klebsiella pneumoniae. The method, then:
as §1, §2, §3, §4, §5, §6, §7, §8

The subject of the next data set is A. baumannii ATCC 17978. Nature of the data set: inhibition of bacterial growth, OD600 after 20 h. The class given is cell-based, Acinetobacter baumannii. The following applies: SSA 5.0 mM, 2.5% ethanol, negative = enhanced growth. The method, then:
as §1, §2, §3, §4, §5, §6, §7, §8

Another data set deals with E. faecalis NCTC 775. The experiment in a line: inhibition of bacterial growth, OD600 after 20 h. The class given is cell-based, Enterococcus faecalis. The following applies: SSA 5.0 mM, 2.5% ethanol, negative = enhanced growth. The method, then: as §1, §2, §3, §4, §5, §6, §7, §8
A short description of data set [3]: quantitative (Q) 1H NMR spectroscopy, proportion of SSA becoming NMR silent (higher-order aggregates). The following applies: for (Q) 1H NMR spectroscopy, proportion NMR silent, acid or anion / (Q) 1H NMR spectroscopy, proportion NMR silent, cation: 5.6 mM, D2O 5.0% EtOH, 298 K. The format is physicochemical. The method, then:
To confirm the presence of higher order self-associative structures quantitative (Q) ^1H NMR spectroscopy studies were undertaken at 5.6 mM in D2O 5% EtOH. Here the ^1H NMR resonances attributed to the EtOH are used as an internal standard.
Table S1 – Overview of results of the quantitative (Q) 1H NMR studies for 1, 3, 5, 7 and 9
5.0 % EtOH . Values given in % represent the observed proportion of the SSA that has become
Table S2 – Overview of results of the quantitative (Q) 1H NMR studies for 2, 4, 6, 8 and 10
5.0 % EtOH. Values given in % represent the observed proportion of anion and cation that has

The nature of data set [4]: tensiometry: critical aggregate concentration (CAC) and surface tension. The following applies: for Surface tension at CAC: H2O/5.0 % EtOH. The class given is physicochemical. The method, then:
As the (Q) ^1H NMR spectroscopy experiments conducted at 5.6 mM in a D2O 5.0% EtOH solution confirmed the presence of higher-order self-associated structures with solid-like properties, concentration dependent surface tension measurements, obtained through tensiometry, were used to calculate critical aggregate concentration (CAC). Here the CAC is defined as the point at which an increase in SSA concentration no longer decreases surface tension but instead results in the formation of higher-order self-associated structures.

In the next data set the test system is E. coli NCTC 12923. The experiment in a line: inhibition of bacterial growth, OD600 after 20 h. The class given is cell-based, Escherichia coli. The following applies: SSA 5.0 mM, 2.5% ethanol, negative = enhanced growth. The method, then: as §1, §2, §3, §4, §5, §6, §7, §8
Data set [5] has as its system all Gram-positive bacteria tested. Nature of the data set: inhibition of bacterial growth, span over the Gram-positive panel. The format is cell-based, S. aureus, E. faecalis, E. faecium. The following applies: SSA 5.0 mM, 20 hours; read-out: inhibition against all Gram-positive bacteria tested (span). The method, then: as §1, §2, §3, §4
Preparation of Luria Broth (LB) agar plates: Agar (6.0 g) was added to LB (400 mL) and autoclaved. […]
Preparation of 96 well microplate for MIC50: The 1:100 cell suspension (150 µL) was dispensed into individual wells under sterile conditions. […] The plates were sealed using parafilm, then incubated at 37 °C in a microplate reader for 20 hours. […]

The next data set relates to S. aureus ATCC 9144. The experiment in a line: inhibition of bacterial growth, OD600 after 20 h. The class given is cell-based, Staphylococcus aureus. The following applies: SSA 5.0 mM, 2.5% ethanol, negative = enhanced growth. The method, then: as §1, §2, §3, §4, §5, §6, §7, §8
Another data set has as its system E. faecium NCTC 12204. Nature of the data set: inhibition of bacterial growth, OD600 after 20 h. The following applies: SSA 5.0 mM, 2.5% ethanol, negative = enhanced growth. The format is cell-based, Enterococcus faecium. The method, then: as §1, §2, §3, §4, §5, §6, §7, §8
[6] abbreviates: H2O 5.0% EtOH, 298 K, listed as 4.

In brackets after ≈: the same amount, converted by molar mass. Several values for one entry are separate records, joined by “and”; a condition that tells them apart may be missing. Equal values may be shown once.

Usually solubility stands for how much of the substance goes into solution per volume. Lower therefore signals a poorly soluble substance. For `O=C(O)Cc1ccccc1Nc1c(Cl)cccc1Cl` [Diclofenac, reference compound], the concentration in solution in data set [1] (PBS, Solubility in PBS pH 7.4, kinetic, upper limit set at 300 µM) (solubility) was 281 µM (≈ 83.2 µg/mL).
In data set [1], `CC(=O)[C@H]1CC[C@H]2[C@@H]3CCC4=CC(=O)CC[C@]4(C)[C@H]3CC[C@]12C` [Progesterone, reference compound] yielded a solubility of 14.5 µM (≈ 4.57 µg/mL). This lies in the double-digit micromolar range.
The inhibition is how much of the control response was suppressed. `O=C(O)CC[C@@H](NC(=O)Nc1ccc(C(F)(F)F)cc1)C(=O)O` [SSA 4]: in the data set with P. aeruginosa PAO1 (listed as 4), the “Percentage inhibition of bacterial growth, PAO1 (P. aeruginosa)” value is 10.30% and 10%. Also, in [2] (listed as 4), the “DLS Peak 2 maxima” value is reported as 5118 nm, the “Polydispersity index (%)” value is listed as 27.4 (± 0.8) % and the “dH (DLS intensity distribution peak 1 maxima)” value worked out at 255 nm. In the data set on K. pneumoniae M6 (listed as 4), the “Percentage inhibition of bacterial growth, M6 (K. pneumoniae)” value is 19.93% and 20%. Moreover, the “Percentage inhibition of bacterial growth, ATCC 17978 (A. baumannii)” value in the data set with A. baumannii ATCC 17978 (listed as 4) is -20.93% and −21%. Besides, in the data set on E. faecalis NCTC 775 (listed as 4), the “Percentage inhibition of bacterial growth, NCTC 775 (E. faecalis)” value is 98.82% and 99%. Further, in data set [3] (listed as 4), the “(Q) 1H NMR spectroscopy, proportion NMR silent, acid or anion” value came to 41%; the “(Q) 1H NMR spectroscopy, proportion NMR silent, cation” value was 43.2% and 43%. For the same compound, in data set [3] (~112 mM, DMSO-d6 1.0% DCM), the “(Q) 1H NMR, proportion NMR silent, SSA acid or anion” value amounted to 0% and the “(Q) 1H NMR, proportion NMR silent, cation” value came to 0%. In data set [4] (setting [6]), the CAC was 22.26 mM and 22 mM; the “ST at CAC” value turned out to be 38 mN m^−1. In addition, in [4] (listed as 4), the “Surface tension at CAC” value is reported as 38.35 mN/m. The “Percentage inhibition of bacterial growth, NCTC 12923 (E. coli)” value in the data set on E. coli NCTC 12923 (listed as 4) is 39.02% and 39%. In [5], the inhibition at 5000 µM lay in the range of 99 to 100%. Besides, the “Percentage inhibition of bacterial growth, ATCC 9144 (S. aureus)” value with S. aureus ATCC 9144 (listed as 4) was 98.85% and 99%. Moreover, in the data set with E. faecium NCTC 12204 (listed as 4), the “Percentage inhibition of bacterial growth, NCTC 12204 (E. faecium)” value is 99.74% and 100%.
On to `COc1ccc(NC(=O)N[C@@H](CC(=O)O)C(=O)O)cc1` [SSA 8], for which, in the data set on P. aeruginosa PAO1 (listed as 8), the “Percentage inhibition of bacterial growth, PAO1 (P. aeruginosa)” value is 37.24% and 37%. In data set [2] (listed as 8), the “DLS Peak 2 maxima” value was 3417 nm, the “Polydispersity index (%)” value is reported as 25.6 (± 1.0) % and the “dH (DLS intensity distribution peak 1 maxima)” value is given as 313 nm. For the same compound, the “Percentage inhibition of bacterial growth, M6 (K. pneumoniae)” value in the data set on K. pneumoniae M6 (listed as 8) was 9.69% and 10%. The “Percentage inhibition of bacterial growth, ATCC 17978 (A. baumannii)” value in the data set with A. baumannii ATCC 17978 (listed as 8) is -20.26% and −20%. The “Percentage inhibition of bacterial growth, NCTC 775 (E. faecalis)” value in the data set with E. faecalis NCTC 775 (listed as 8) was 38.33% and 38%. In addition, in data set [3], the “(Q) 1H NMR spectroscopy, proportion NMR silent, acid or anion” value is listed as 47%; the “(Q) 1H NMR spectroscopy, proportion NMR silent, cation” value was 41.8% and 42%. Further, the “(Q) 1H NMR, proportion NMR silent, cation” value in data set [3] (~112 mM, DMSO-d6 1.0% DCM) turned out to be 0%. The “ST at CAC” value in [4] (H2O 5.0% EtOH, 298 K, listed as 8) is on record as 52 mN m^−1. Also, in data set [4] (listed as 8), the “Surface tension at CAC” value is listed as 51.98 mN/m. Besides, the “Percentage inhibition of bacterial growth, NCTC 12923 (E. coli)” value in the data set on E. coli NCTC 12923 (listed as 8) is 39.33% and 39%. Besides, the “Percentage inhibition of bacterial growth, ATCC 9144 (S. aureus)” value in the data set with S. aureus ATCC 9144 (listed as 8) was 96.79% and 97%. Besides, the “Percentage inhibition of bacterial growth, NCTC 12204 (E. faecium)” value in the data set with E. faecium NCTC 12204 (listed as 8) was -1.33% and −1%.

The values above are taken from PMC12645191, “Dicarboxylate and dicarboxylic acid appended supramolecular self-associating amphiphiles as antimicrobial agents against high priority bacterial pathogens” (Organic & Biomolecular Chemistry, 2025).
